Measured values taken from PubChem BioAssay AID1386 (Sanford-Burnham Center for Chemical Genomics, 2008).

Test system: mouse primary cortical neurons, thapsigargin death, survival counting
Experiment: neuroprotection against thapsigargin-induced death, late-stage follow-up, ER stress cell death inhibitors, imaging, mouse primary cortical neurons, immunostaining, death counting (AID 1386)
Conditions: at 25 µM

COc1ccc(C2CC(=O)C3=C(C2)Nc2ccccc2NC3c2cccc(Oc3ccccc3)c2)cc1OC (configuration not stated) gave a survival (stronger effect = higher value) of 87% and a survival (measured here: survival without thapsigargin) of 91%.
